The source of these data is patent publication US5958894A, “Amphiphilic biguanide derivatives” (Megabios Corporation, priority 1997, dated 1999).

Data set [1] has as its system CAT reporter gene expression in lung. The data set is described as follows: Gene transfer efficiency by intravenous delivery: CAT reporter gene (plasmid p4119) activity in mouse organs. Type of data set: in vivo, ICR female mice. As to conditions: with either cholesterol or DLPE as neutral lipids. The method, then: (§1) DOBG, DMBG and DPBG were used to prepare liposomes with either cholesterol or DLPE (1,2-dilauroyl-sn-glycerol-3-phosphoethanolamine) as neutral lipids. The lipids were dissolved in a mixture of chloroform and methanol (1:1). Lipid films of cationic and neutral lipid at a 1:1 molar ratio were formed with a rotary evaporator. The films were hydrated with either 5% dextrose in water (D5W) or 5 mM HEPES buffer (pH 7.4) at various temperatures. […] DMBG:DLPE was hydrated in D5W at 50° C. and extruded through a 0.05 μm membrane. […] DOBG:cholesterol and DOBG:DLPE were hydrated in D5W at room temperature and extruded through a 0.05 μm membrane.

Another data set relates to in vivo transfection. In words: Comparison of in vivo transfection activity of biguanide and guanidine derivatives with identical hydrophobic chains. As to conditions: data not shown. The source says:
The biguanide derivatives of the present invention differ from the guanidine derivatives described in WO 95/14381 in the positively charged headgroups. The positive charge of the biguanide derivatives is delocalized over five nitrogen atoms, whereas the positive charge of the guanidine derivatives is delocalized over three nitrogen atoms. Thus, compounds of the present invention have been compared to the guanidine derivatives having the identical hydrophobic chains (not shown).

Data set [2] in a line: Liposome hydration and extrusion. As to conditions: at 50° C.; with either DLPE or cholesterol. It counts as physicochemical. The method, then:
as §1

For data set [3] the following is noted: strongly basic head group; cited from earlier work.

Each structure is given as a SMILES string.

`CCCCCCCC/C=C\CCCCCCCC(=O)OCCN(CCOC(=O)CCCCCCC/C=C\CCCCCCCC)C(=N)NC(=N)N` [DOBG, N,N-di(2-(oleoyloxy)ethyl) biguanide]: the “transfection activity in the lung compared with DOTIM:cholesterol” value in data set [1] is “comparable to or higher than DOTIM:cholesterol”. Moreover, the “in vivo transfection activity, dioleoyl derivatives of biguanide versus guanidine” value in the data set with in vivo transfection is recorded as “higher in vivo transfection activity than the dioleolyl derivatives of guanidine”. Regarding `CCCCCCCCCCCCCCCC(=O)OCCN(CCOC(=O)CCCCCCCCCCCCCCC)C(=N)NC(=N)N` [DPBG, N,N-di(2-(palmitoyloxy)ethyl)biguanide], the “Hydration of lipid film” value in data set [2] was “could not be completely hydrated”. With `N=C(N)NC(=N)N` [biguanide], in data set [3], the pKa is 11.5.
